# Experimental data as given in ChEMBL document CHEMBL3885861, “Open TG-GATES”.
# Organism: Rattus norvegicus
# Test: Open TG-GATES - Regimen: Daily Repeat
# Assay type: toxicity, organism-based, Sprague-Dawley
# Design: regimen Daily Repeat, gender Male, age 6 weeks
# Settings: in vivo, po, route gavage; for APTT / Bas / Eos / Fbg / Hb / Ht / Lym / MCHC / MCV / Mono / Neu / PT / Plat / RBC / Ret / WBC / MCH: tissue Blood; for KIDNEY_L / KIDNEY_R / KIDNEY_TOTAL: tissue Kidney; for LIVER: tissue Liver; for ALP / ALT / AST / BUN / CRE / Ca / DBIL / GLC / K / LDH / Na / PL / RALB / TBIL / TC / TG / TP / gamma-GTP: tissue Plasma
# [1] = 0 mg/kg, 72 h, dose level Control, time 3 day
# [2] = 0 mg/kg, […], dose level Control, time 7 day
# [3] = 0 mg/kg, […], dose level Control, time 14 day
# [4] = 0 mg/kg, […], dose level Control, time 28 day
# [5] = 20 mg/kg, 72 h, dose level Low, time 3 day
# [6] = 20 mg/kg, […], dose level Low, time 7 day
# [7] = 20 mg/kg, […], dose level Low, time 14 day
# [8] = 20 mg/kg, […], dose level Low, time 28 day
compound,measurement,setting,value
CCCCc1oc2ccccc2c1C(=O)c1cc(I)c(OCCN(CC)CC)c(I)c1 [AMIODARONE],TERMINAL_BW,[1],226.9 g
same,APTT,[1],18.2 s
same,Bas,[1],0%
same,Eos,[1],0.8%
same,Fbg,[1],229 mg/dL
same,Hb,[1],13.5 g/dL
same,Ht,[1],39.6%
same,Lym,[1],74.8%
same,MCHC,[1],34.1%
same,MCV,[1],62.7 fL
same,Mono,[1],3%
same,Neu,[1],20.4%
same,PT,[1],12.3 s
same,Plat,[1],122.3 x10_4/uL
same,RBC,[1],631.4 x10_4/ul
same,Ret,[1],6.4%
same,WBC,[1],91.2 x10_2/uL
same,KIDNEY_L,[1],1 g
same,KIDNEY_R,[1],1 g
same,KIDNEY_TOTAL,[1],2 g
same,LIVER,[1],11.2 g
same,ALP,[1],985.8 IU/L
same,ALT,[1],37.8 IU/L
same,AST,[1],72.6 IU/L
same,BUN,[1],16.2 mg/dL
same,CRE,[1],0.4 mg/dL
same,Ca,[1],10.9 mg/dL
same,DBIL,[1],0.096 mg/dL
same,GLC,[1],207.4 mg/dL
same,K,[1],3.9 meq/L
same,LDH,[1],213 IU/L
same,Na,[1],140.6 meq/L
same,PL,[1],162.4 mg/dL
same,RALB,[1],3.5 g/dL
same,TBIL,[1],0.1 mg/dL
same,TC,[1],77.6 mg/dL
same,TG,[1],113.2 mg/dL
same,TP,[1],5.8 g/dL
same,gamma-GTP,[1],1 IU/L
same,TERMINAL_BW,[2],253.9 g
same,TERMINAL_BW,[3],312.1 g
same,TERMINAL_BW,[4],382 g
same,APTT,[2],19.5 s
same,Bas,[2],0%
same,Eos,[2],1%
same,Fbg,[2],218.2 mg/dL
same,Hb,[2],13.6 g/dL
same,Ht,[2],39.8%
same,Lym,[2],78.4%
same,MCH,[2],21.2 pg
same,MCV,[2],61.9 fL
same,Mono,[2],2.4%
same,Neu,[2],17%
same,PT,[2],12 s
same,Plat,[2],117.4 x10_4/uL
same,RBC,[2],642.8 x10_4/ul
same,Ret,[2],5.1%
same,WBC,[2],102.5 x10_2/uL
same,APTT,[3],19.9 s
same,Bas,[3],0%
same,Eos,[3],0.8%
same,Fbg,[3],231.8 mg/dL
same,Hb,[3],14.4 g/dL
same,Ht,[3],41.2%
same,Lym,[3],81.4%
same,MCH,[3],20.9 pg
same,MCHC,[3],34.8%
same,MCV,[3],59.9 fL
same,Mono,[3],2.8%
same,Neu,[3],13.8%
same,Plat,[3],128.6 x10_4/uL
same,RBC,[3],689.2 x10_4/ul
same,Ret,[3],4.6%
same,WBC,[3],85.2 x10_2/uL
same,APTT,[4],21.2 s
same,Bas,[4],0%
same,Eos,[4],1%
same,Fbg,[4],224.6 mg/dL
same,Hb,[4],15.5 g/dL
same,Ht,[4],43.9%
same,Lym,[4],78.4%
same,MCH,[4],19.9 pg
same,MCHC,[4],35.4%
same,MCV,[4],56.3 fL
same,Mono,[4],2.4%
same,Neu,[4],17.2%
same,PT,[4],12.4 s
same,Plat,[4],111.1 x10_4/uL
same,RBC,[4],779.2 x10_4/ul
same,Ret,[4],2.6%
same,WBC,[4],92.4 x10_2/uL
same,KIDNEY_L,[2],1.1 g
same,KIDNEY_R,[2],1.1 g
same,KIDNEY_TOTAL,[2],2.2 g
same,KIDNEY_L,[3],1.2 g
same,KIDNEY_R,[3],1.2 g
same,KIDNEY_TOTAL,[3],2.5 g
same,KIDNEY_L,[4],1.4 g
same,KIDNEY_R,[4],1.3 g
same,KIDNEY_TOTAL,[4],2.7 g
same,LIVER,[2],12.1 g
same,LIVER,[3],14.6 g
same,LIVER,[4],15 g
same,ALP,[2],963.6 IU/L
same,ALT,[2],34 IU/L
same,AST,[2],62.6 IU/L
same,BUN,[2],16.6 mg/dL
same,CRE,[2],0.4 mg/dL
same,Ca,[2],10.6 mg/dL
same,DBIL,[2],0.1 mg/dL
same,GLC,[2],209.6 mg/dL
same,K,[2],3.8 meq/L
same,LDH,[2],179.6 IU/L
same,Na,[2],140.4 meq/L
same,PL,[2],158.4 mg/dL
same,RALB,[2],3.4 g/dL
same,TBIL,[2],0.2 mg/dL
same,TC,[2],73.6 mg/dL
same,TG,[2],116.6 mg/dL
same,TP,[2],5.6 g/dL
same,gamma-GTP,[2],1.6 IU/L
same,ALP,[3],896.2 IU/L
same,ALT,[3],40.6 IU/L
same,AST,[3],70.8 IU/L
same,BUN,[3],16.6 mg/dL
same,CRE,[3],0.5 mg/dL
same,Ca,[3],10.7 mg/dL
same,DBIL,[3],0.09 mg/dL
same,GLC,[3],233.8 mg/dL
same,K,[3],3.5 meq/L
same,LDH,[3],206.4 IU/L
same,Na,[3],140.2 meq/L
same,PL,[3],160.8 mg/dL
same,RALB,[3],3.5 g/dL
same,TBIL,[3],0.2 mg/dL
same,TG,[3],117 mg/dL
same,TP,[3],6 g/dL
same,gamma-GTP,[3],1 IU/L
same,ALP,[4],614.8 IU/L
same,ALT,[4],37.6 IU/L
same,AST,[4],61.6 IU/L
same,BUN,[4],17.4 mg/dL
same,CRE,[4],0.4 mg/dL
same,Ca,[4],10.4 mg/dL
same,DBIL,[4],0.1 mg/dL
same,GLC,[4],214.4 mg/dL
same,K,[4],3.7 meq/L
same,LDH,[4],158.6 IU/L
same,Na,[4],140.2 meq/L
same,PL,[4],151 mg/dL
same,RALB,[4],3.4 g/dL
same,TBIL,[4],0.2 mg/dL
same,TC,[4],67 mg/dL
same,TG,[4],152.4 mg/dL
same,TP,[4],6 g/dL
same,gamma-GTP,[4],1 IU/L
same,TERMINAL_BW,[5],226.2 g
same,Bas,[5],0%
same,Eos,[5],0.8%
same,Fbg,[5],227.8 mg/dL
same,Hb,[5],13.5 g/dL
same,Ht,[5],39%
same,Lym,[5],78.2%
same,MCH,[5],22.1 pg
same,MCV,[5],63.9 fL
same,Mono,[5],3%
same,Neu,[5],16.6%
same,PT,[5],12.8 s
same,Plat,[5],125.2 x10_4/uL
same,RBC,[5],610.8 x10_4/ul
same,Ret,[5],6.1%
same,WBC,[5],101.8 x10_2/uL
same,KIDNEY_L,[5],1 g
same,KIDNEY_R,[5],1 g
same,KIDNEY_TOTAL,[5],2.1 g
same,LIVER,[5],11 g
same,ALP,[5],1159.8 IU/L
same,ALT,[5],38.8 IU/L
same,AST,[5],71 IU/L
same,BUN,[5],17 mg/dL
same,CRE,[5],0.4 mg/dL
same,Ca,[5],10.7 mg/dL
same,DBIL,[5],0.088 mg/dL
same,GLC,[5],200 mg/dL
same,K,[5],3.8 meq/L
same,LDH,[5],215.2 IU/L
same,Na,[5],140.4 meq/L
same,PL,[5],144.2 mg/dL
same,RALB,[5],3.4 g/dL
same,TBIL,[5],0.1 mg/dL
same,TC,[5],72.8 mg/dL
same,TG,[5],88.8 mg/dL
same,TP,[5],5.7 g/dL
same,gamma-GTP,[5],1.6 IU/L
same,TERMINAL_BW,[6],267.4 g
same,TERMINAL_BW,[7],322 g
same,TERMINAL_BW,[8],379.8 g
same,APTT,[6],18.5 s
same,Bas,[6],0%
same,Eos,[6],0.8%
same,Fbg,[6],222 mg/dL
same,Ht,[6],39.1%
same,Lym,[6],79.6%
same,MCH,[6],21.1 pg
same,MCHC,[6],34.1%
same,MCV,[6],62 fL
same,Mono,[6],2.8%
same,Neu,[6],15.6%
same,Plat,[6],126.6 x10_4/uL
same,RBC,[6],630 x10_4/ul
same,Ret,[6],6.1%
same,WBC,[6],117.1 x10_2/uL
same,APTT,[7],19.7 s
same,Bas,[7],0%
same,Eos,[7],1%
same,Fbg,[7],216.8 mg/dL
same,Hb,[7],14.2 g/dL
same,Ht,[7],41.2%
same,Lym,[7],79.6%
same,MCH,[7],20.4 pg
same,MCV,[7],59.2 fL
same,Mono,[7],2.8%
same,Neu,[7],15.6%
same,PT,[7],12.8 s
same,Plat,[7],116.8 x10_4/uL
same,RBC,[7],696.4 x10_4/ul
same,Ret,[7],4.6%
same,WBC,[7],84.5 x10_2/uL
same,APTT,[8],19.6 s
same,Bas,[8],0%
same,Eos,[8],1.2%
same,Fbg,[8],221.6 mg/dL
same,Ht,[8],43.5%
same,Lym,[8],78.2%
same,MCH,[8],19.6 pg
same,MCHC,[8],35.1%
same,MCV,[8],56 fL
same,Mono,[8],2.8%
same,Neu,[8],16.6%
same,PT,[8],12.3 s
same,Plat,[8],109.6 x10_4/uL
same,RBC,[8],777.2 x10_4/ul
same,Ret,[8],2.7%
same,WBC,[8],117.6 x10_2/uL
same,KIDNEY_L,[6],1.1 g
same,KIDNEY_R,[6],1.1 g
same,KIDNEY_TOTAL,[6],2.2 g
same,KIDNEY_L,[7],1.3 g
same,KIDNEY_R,[7],1.3 g
same,KIDNEY_TOTAL,[7],2.5 g
same,KIDNEY_L,[8],1.3 g
same,KIDNEY_R,[8],1.3 g
same,KIDNEY_TOTAL,[8],2.6 g
same,LIVER,[6],12.7 g
same,LIVER,[7],14.6 g
same,LIVER,[8],15.5 g
same,ALP,[6],1065 IU/L
same,ALT,[6],33 IU/L
same,AST,[6],61.8 IU/L
same,CRE,[6],0.4 mg/dL
same,Ca,[6],10.7 mg/dL
same,DBIL,[6],0.1 mg/dL
same,GLC,[6],216.6 mg/dL
same,K,[6],3.8 meq/L
same,LDH,[6],197.4 IU/L
same,Na,[6],140.6 meq/L
same,RALB,[6],3.3 g/dL
same,TBIL,[6],0.2 mg/dL
same,TC,[6],70.8 mg/dL
same,TG,[6],89.4 mg/dL
same,TP,[6],5.5 g/dL
same,gamma-GTP,[6],1.2 IU/L
same,ALP,[7],861.4 IU/L
same,ALT,[7],38 IU/L
same,AST,[7],63.6 IU/L
same,BUN,[7],17.4 mg/dL
same,CRE,[7],0.4 mg/dL
same,Ca,[7],10.5 mg/dL
same,DBIL,[7],0.1 mg/dL
same,GLC,[7],220.6 mg/dL
same,K,[7],4 meq/L
same,LDH,[7],196.2 IU/L
same,Na,[7],139.6 meq/L
same,PL,[7],161.6 mg/dL
same,RALB,[7],3.3 g/dL
same,TBIL,[7],0.2 mg/dL
same,TC,[7],81.2 mg/dL
same,TG,[7],148.2 mg/dL
same,TP,[7],5.7 g/dL
same,gamma-GTP,[7],1.4 IU/L
same,ALP,[8],765.6 IU/L
same,ALT,[8],40 IU/L
same,AST,[8],66.2 IU/L
same,BUN,[8],18.2 mg/dL
same,CRE,[8],0.5 mg/dL
same,Ca,[8],10.5 mg/dL
same,DBIL,[8],0.1 mg/dL
same,GLC,[8],213.2 mg/dL
same,K,[8],3.8 meq/L
same,LDH,[8],192.6 IU/L
same,Na,[8],140.4 meq/L
same,PL,[8],160.8 mg/dL
same,RALB,[8],3.5 g/dL
same,TBIL,[8],0.2 mg/dL
same,TC,[8],73.8 mg/dL
same,TG,[8],164.6 mg/dL
same,TP,[8],6.1 g/dL
same,gamma-GTP,[8],1.4 IU/L
